In publication PMC8375385, “In vitro Effect of Harmine Alkaloid and Its N-Methyl Derivatives Against Toxoplasma gondii” (Frontiers in Microbiology, 2021):
“Also recorded” adds a separate entry of the source. Like-named read-outs stand apart in the source and are kept apart here.

Assays:
[1] = MTT cytotoxicity on hTERT fibroblasts, 4 days; assay type: cell-based, human; settings: human, MTT, 4 days of incubation (Table 1 footnote b)
Procedure: (§1) The same assay was performed for hTERT fibroblasts, incubated for 4 days with different concentrations of 3. Absorbance was read at 540 nm (reference wavelength: 700 nm) in a plate reader (Synergy H1 Hybrid Reader, BioTek). Average absorbance from background wells (without cells, treated as the samples) was subtracted out, to obtain corrected values (A540 corr). The percentage of cell viability was calculated as follows:
(§2) Cellviability(%)=A540corrtreatedcells/A540corruntreatedcells×100
(§3) CC50 values were obtained by nonlinear regression analysis of cell viability (%) vs. log[compound] with a variable Hill’s slope, using the GraphPad Prism 5.03 software. Each concentration was assayed in triplicates, in three independent sets of experiments. To avoid effects of evaporation, outer wells were not used.

[2] = system: hTERT fibroblasts; assay: MTT cytotoxicity on hTERT fibroblasts, 4 days; assay type: cell-based, human; settings: 10 μM, 4 days
Procedure: as §1, §2, §3

[3] = system: T. gondii RH Δhxgprt tachyzoites; assay: Replication assay (tachyzoites per PV); assay type: cell-based, Toxoplasma gondii
Procedure: The effect of βCs on the replication process was evaluated on both extracellular and intracellular treated tachyzoites of the strain RH Δhxgprt. In the first case, the procedure followed was described above (see invasion assay), but after allowing the invasion, samples were washed with PBS and incubated for 1 day with supplemented DMEM (without drugs), before fixing and staining. To investigate βCs’ action on intracellular parasites, confluent Vero cells grown in 24-well plates were infected with 2 × 10^6 tachyzoites per well and treated for 2 days with different concentrations of the investigated drugs or the vehicle (DMSO) as negative control. Finally, they were fixed and immunolabeled as detailed previously. The number of tachyzoites per PV was analyzed under a microscope with × 63 magnification. At least 100 PVs selected at random were scored in triplicates, per compound dose, in two independent sets of experiments. Results are depicted as the mean percentage of PVs (% PV) that contained a geometric progression 2^n (with “n” being a natural number ≥ 0) of tachyzoites per PV ± SEM.

[4] = system: T. gondii RH Δhxgprt tachyzoites; assay: Tachyzoite cell cycle analysis by flow cytometry; assay type: cell-based, Toxoplasma gondii; settings: infected hTERT fibroblasts, 2 days; 1–3 at 7.5 μM, SDZ at 500 μM
Procedure: Tachyzoites of the RH Δhxgprt strain (3 × 10^6) were added to hTERT cell monolayers grown into six-well plates. After invasion was allowed, the medium was changed, and infected cells were incubated for 2 days with 1, 2, and 3 (7.5 μM); SDZ (500 μM, positive control); or the vehicle (negative control), diluted in supplemented DMEM. Then, cells were detached using trypsin/EDTA solution and gently ruptured by successive passages through 27- and 30-gauge needles in order to obtain free parasites. Samples were centrifuged (2,000 rpm, 10 min), washed with PBS, fixed with 70% ethanol, and stored for 1 day at −20°C. Afterward, samples were processed and stained as described previously ([Munera Lopez et al., 2019]). At least 10,000 tachyzoites per sample were analyzed by flow cytometry measurements, carried out in a BD FACSCalibur equipment. Results were analyzed using FlowJo software 7.6. All assays were performed in duplicates, in two independent experiments.

[5] = system: T. gondii RH RFP tachyzoites; assay: Lytic cycle growth assay (RFP fluorescence); assay type: cell-based, Toxoplasma gondii; settings: for IC50: Toxoplasma gondii, Fibroblast, RH RFP strain in hTERT fibroblasts, read-out: IC50 (converted)
[6] = system: T. gondii RH Δhxgprt tachyzoites; assay: Plaque reduction assay; assay type: cell-based, Toxoplasma gondii
Procedure: Monolayers of hTERT fibroblasts grown into 24-well plates were infected with 1 × 10^4 tachyzoites per well of the RH Δhxgprt strain. Then, they were washed with PBS and treated with different concentrations of 3 or the vehicle (DMSO) diluted in supplemented DMEM. After 6.5 days of incubation, monolayers were washed, fixed with ethanol (70% v/v), and stained with crystal violet (Sigma). The IC50 value was obtained by nonlinear regression analysis of the number of plaques vs log[3] (variable Hill’s slope). The area of the plaques was analyzed by ImageJ software.

[7] = system: T. gondii RH RFP tachyzoites; assay: Time of removal assay; assay type: cell-based, Toxoplasma gondii; settings: for growth recovery after drug removal: followed up to 15 d.p.i.
[8] = system: T. gondii γH2A.X; assay: Western blot of γH2A.X in intracellular tachyzoites; assay type: cell-based, Toxoplasma gondii; settings: 2 days
Procedure: Monolayers of hTERT cells grown in 12-well plates were infected with 5 × 10^6 tachyzoites of the RH Δhxgprt strain. After the invasion process, cells were washed with PBS and incubated with 3 (7.5 μM), CPT (10 μM), 3 (7.5 μM) plus CPT (10 μM), or the vehicle (DMSO), diluted in supplemented DMEM for 2 days. Then, infected cells were harvested by trypsinization, centrifuged, resuspended in PBS, and lysed by freeze–thaw cycling. Samples were resolved by SDS-PAGE (15%), and a western blot assay was conducted. Membranes were incubated (1 h, RT) with rabbit anti-T. gondii γH2A.X (1:500) ([Contreras et al., 2021]) and murine anti-SAG1 (Novus Biologicals, 1:500). Finally, they were washed several times with PBS-T and incubated with alkaline phosphatase-conjugated anti-rabbit or anti-mouse secondary antibodies, diluted to 1:4,000 (Santa Cruz Biotechnology). Immunoreactive protein bands were visualized by the NBT-BCIP (Promega) method. Densitometric analysis of scanned images was performed using the Image-Pro Plus software.

[9] = system: ctDNA; settings: pH 7.4; ref Vignoni et al., 2014; cited from earlier work
[10] = system: human topoisomerase II; parameters: method as in Cao et al., 2005; settings: 600 μM; ref Cao et al., 2005; cited from earlier work
[11] = system: topoisomerase I; parameters: method as in Cao et al., 2005; settings: cell-free system, ref Cao et al., 2005, cited from earlier work
[12] = system: Vero cells; assay: MTT cytotoxicity on Vero host cells, 2 days; settings: Vero cells, 2 days of treatment (Table 1 footnote a)

COc1ccc2c3ccnc(C)c3n(C)c2c1 [Compound 3, 9-methyl-harmine]
CC50 at 4 days [1]: 31 µM | impact on fibroblast metabolism (MTT) [2]: no impact | increase of % PV with one parasite (% PV (1P)) vs control ([3]; 1-h-pretreated extracellular tachyzoites, 5–50 μM, 1 day of incubation without drug): fivefold | % PV (1P) ([3]; intracellular tachyzoites in Vero cells, 7.5 μM, 2 days of incubation): 78% | effect on tachyzoite cell cycle (DNA content, G1 vs S/M) [4]: arrest in S/M phases; also recorded: significant enrichment in tachyzoite DNA content compatible with S/M phases | selectivity index (SI) ([5]; CC50 hTERT 4 days / IC50 at 4 d.p.i.): 17.2 | effect on tachyzoite growth ([5]; RH RFP in hTERT fibroblasts, up to 10 μM, 3 d.p.i.): strong growth inhibition | IC50 ([5]; 72 h, 3 d.p.i. (Table 1 footnote d)): 1.6 ± 0.2 µM | IC50 ([5]; 96 h, 4 d.p.i. (Table 1 footnote e)): 1.8 µM | parasite growth in plaque assay ([6]; 7.5 μM, 6.5 days, RH Δhxgprt): no parasite growth | IC50 ([6]; Toxoplasma gondii, Fibroblast, 156 h, read-out: IC50 (number of plaques)): 3.1 µM | growth recovery after drug removal ([7]; 1.7 and 2 days of treatment, 7.5 μM): significant reduction of tachyzoite growth | growth recovery after drug removal ([7]; 1.7 and 2 days of treatment, 10 μM): total growth inhibition | growth recovery after drug removal ([7]; 0.7 days of treatment, 5, 7.5 and 10 μM): not effective | parasite growth under continuous treatment ([7]; continuous treatment up to 15 days, 5, 7.5 and 10 μM): complete inhibition of parasite growth | γH2A.X levels when co-administered with CPT ([8]; 3 7.5 μM plus CPT 10 μM): reduced them significantly | γH2A.X levels ([8]; intracellular tachyzoites, CPT 10 μM or 3 7.5 μM alone): decreased basal levels | overall binding constant to ctDNA [9]: 16.8 ± 0.5 × 10^3 M^–1 in bp | inhibition of human topoisomerase II [10]: do not inhibit | inhibition of topoisomerase I activity ([11]; 50 μM): strongly decreases | inhibition of topoisomerase I activity ([11]; 150 μM): inhibited | CC50 [12]: 59 ± 8 µM
